Where two headings read alike, the source gives them in different places.

Test [1] has as its target cdk4/D (Homo sapiens, UniProt P11802). Briefly: Cyclin-Dependent Kinase 4 (cdk4) Assay. Format: biochemical. The settings on record: read-out: cdk4/D IC50.
Test [2] addresses Cdk5/p25 (Homo sapiens, UniProt Q00535). The test is described as follows: Cyclin-Dependent Kinase 5 High Throughput Screening (cdk5-HTS) Assay. Format: biochemical. The settings on record: high throughput screen. In outline:
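IC50 determined from 33P incorporation into GST-RbCOOH captured on glutathione plates and read by scintillation counting. Reaction: 1.0 μg/mL Cdk5/p25, 20 μM [γ33P]ATP, pH 7.4 Tris buffer with MgCl2 and DTT, 30 min at room temperature, stopped with EDTA.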

Test [3] addresses cdk2/cyclinE (Homo sapiens, UniProt P24941). Briefly: Cyclin-Dependent Kinase Assay cdk2/cyclinE.
Test [4] concerns the target cdk2/cyclinA (Homo sapiens, UniProt P24941). The test is described as follows: Cyclin-Dependent Kinase Assay cdk2/cyclinA.
Test [5] deals with cdc2/cyclinB (Homo sapiens, UniProt P06493). The test is described as follows: Cyclin-Dependent Kinase Assay cdc2/cyclinB.
cdc2/cyclinB, sequence (P06493 whole entry): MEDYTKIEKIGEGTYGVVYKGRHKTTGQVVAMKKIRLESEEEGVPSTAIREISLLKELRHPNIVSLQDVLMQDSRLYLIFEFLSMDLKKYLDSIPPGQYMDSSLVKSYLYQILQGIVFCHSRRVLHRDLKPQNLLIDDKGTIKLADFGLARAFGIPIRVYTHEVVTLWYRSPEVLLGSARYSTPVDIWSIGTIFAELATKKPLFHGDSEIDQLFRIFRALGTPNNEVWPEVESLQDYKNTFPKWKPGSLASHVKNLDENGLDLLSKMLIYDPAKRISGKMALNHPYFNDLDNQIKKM
cdc2/cyclinB, sequence (P14635 whole entry, further chain): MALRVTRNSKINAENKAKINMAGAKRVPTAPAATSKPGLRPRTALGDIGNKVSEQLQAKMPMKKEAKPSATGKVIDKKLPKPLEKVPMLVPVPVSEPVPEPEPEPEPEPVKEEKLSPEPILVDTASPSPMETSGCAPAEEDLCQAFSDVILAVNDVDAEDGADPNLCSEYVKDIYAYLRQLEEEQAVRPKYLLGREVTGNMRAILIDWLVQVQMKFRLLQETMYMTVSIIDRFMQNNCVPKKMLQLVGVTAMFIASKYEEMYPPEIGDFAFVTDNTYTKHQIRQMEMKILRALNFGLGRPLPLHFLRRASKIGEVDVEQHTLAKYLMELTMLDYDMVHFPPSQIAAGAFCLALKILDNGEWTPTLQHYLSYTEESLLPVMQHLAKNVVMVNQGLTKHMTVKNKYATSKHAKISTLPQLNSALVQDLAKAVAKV

cdk4/D, sequence (P11802 whole entry): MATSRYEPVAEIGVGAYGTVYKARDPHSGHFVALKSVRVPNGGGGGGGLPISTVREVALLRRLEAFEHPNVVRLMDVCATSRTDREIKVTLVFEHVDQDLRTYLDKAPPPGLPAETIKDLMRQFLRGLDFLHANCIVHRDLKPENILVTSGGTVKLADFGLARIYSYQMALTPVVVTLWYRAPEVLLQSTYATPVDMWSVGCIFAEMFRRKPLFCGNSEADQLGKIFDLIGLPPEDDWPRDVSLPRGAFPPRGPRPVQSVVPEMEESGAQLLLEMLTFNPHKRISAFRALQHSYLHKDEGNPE
cdk4/D, sequence (P24385 whole entry, further chain): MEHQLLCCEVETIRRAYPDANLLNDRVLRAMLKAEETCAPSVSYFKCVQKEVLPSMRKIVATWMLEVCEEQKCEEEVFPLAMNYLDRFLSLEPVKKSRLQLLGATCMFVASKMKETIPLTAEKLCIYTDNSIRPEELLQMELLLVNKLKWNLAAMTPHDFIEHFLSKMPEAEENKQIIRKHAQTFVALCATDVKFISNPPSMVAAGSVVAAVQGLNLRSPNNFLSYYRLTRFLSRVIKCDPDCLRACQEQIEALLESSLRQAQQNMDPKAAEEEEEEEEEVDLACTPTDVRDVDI

“2-(4-Bromo-3-trifluoromethyl-phenylamino)-8-cyclopentyl-8H-pyrido[2,3-d]pyrimidin-7-one [Example 561]”: the IC50 in test [1] was 480 nM; in test [2] it was 440 nM; in test [3] (read-out: cdk2/E IC50), 150 nM; in test [4] (read-out: cdk2/A IC50) it was 220 nM; in test [5] (read-out: cdk1/B IC50), 350 nM.

“2-(4-Chloro-3-methyl-phenylamino)-8-isopropyl-8H-pyrido[2,3-d]pyrimidin-7-one [Example 416]”: the IC50 in test [1] was found to be 180 nM; in test [2] it was 38 nM; in test [3] (read-out: cdk2/E IC50) it was 220 nM; in test [4] (read-out: cdk2/A IC50) it was 350 nM; in test [5] (read-out: cdk1/B IC50) it was 280 nM.

As for “8-(1-Ethyl-propyl)-2-(3-trifluoromethyl-phenylamino)-8H-pyrido[2,3-d]pyrimidin-7-one [Example 485]”, the IC50 in test [1] was 232 nM; in test [2], 647 nM; in test [3] (read-out: cdk2/E IC50), 131 nM; in test [4] (read-out: cdk2/A IC50) it was 600 nM; in test [5] (read-out: cdk1/B IC50), 241 nM.

Regarding “8-Cyclopentyl-2-(2,4,6-trifluoro-phenylamino)-8H-pyrido[2,3-d]pyrimidin-7-one [Example 473]”, the IC50 turned out to be 510 nM in test [1]; 67 nM in test [2]; 470 nM in test [3] (read-out: cdk2/E IC50); 330 nM in test [4] (read-out: cdk2/A IC50); 400 nM in test [5] (read-out: cdk1/B IC50).

For the compound “8-Cyclopentyl-2-(3-fluoro-4-methoxy-phenylamino)-8H-pyrido[2,3-d]pyrimidin-7-one [Example 542]”, the IC50 amounted to 9.5 nM in test [1]; 7.7 nM in test [2]; 35 nM in test [3] (read-out: cdk2/E IC50); 75 nM in test [4] (read-out: cdk2/A IC50); 85 nM in test [5] (read-out: cdk1/B IC50).

Take “8-Cyclopropylmethyl-2-(1H-indazol-6-ylamino)-8H-pyrido[2,3-d]pyrimidin-7-one [Example 583]”: the IC50 in test [1] worked out at 1300 nM; in test [2], 105 nM; in test [3] (read-out: cdk2/E IC50), 200 nM; in test [4] (read-out: cdk2/A IC50), 260 nM; in test [5] (read-out: cdk1/B IC50), 355 nM.

For the compound `Cn1c(=O)ccc2cnc(Nc3ccccc3)nc21` [Example 285, 8-Methyl-2-phenylamino-81H-pyrido[2,3-d]pyrimidin-7-one], the IC50 came to 2750 nM in test [1]; 255 nM in test [2]; 2270 nM in test [3] (cdk2/E IC50); 2800 nM in test [4] (cdk2/A IC50); 865 nM in test [5].

As to `CCn1c(=O)ccc2cnc(Nc3ccc4[nH]ncc4c3)nc21` [Example 286, 8-Ethyl-2-(1H-indazol-5-ylamino)-8H-pyrido[2,3-d]pyrimidin-7-one], the IC50 in test [1] was 475 nM; in test [2] it was 108 nM; in test [3] (cdk2/E IC50) it was 223 nM; in test [4] (cdk2/A IC50), 630 nM; in test [5], 275 nM.

In the case of `CCn1c(=O)ccc2cnc(Nc3ccc4[nH]nnc4c3)nc21` [Example 287, 2-(1H-Benzotriazol-5-ylamino)-8-ethyl-8H-pyrido[2,3-d]pyrimidin-7-one], the IC50 in test [1] turned out to be 810 nM; in test [2], 81 nM; in test [3] (cdk2/E IC50), 147 nM; in test [4] (cdk2/A IC50) it was 365 nM; in test [5] it was 350 nM.

Turning to `CCn1c(=O)ccc2cnc(Nc3ccc(NC(=O)OC(C)(C)C)cc3)nc21` [Example 288, [4-(8-Ethyl-7-oxo-7,8-dihydro-pyrido[2,3-d]pyrimidin-2-ylamino)-phenyl]-carbamic acid tert-butyl ester], the IC50 in test [1] is 965 nM; in test [2], 295 nM; in test [3] (cdk2/E IC50) it was 1060 nM; in test [4] (cdk2/A IC50), 1250 nM; in test [5] it was 485 nM.

`CCn1c(=O)ccc2cnc(Nc3ccc(O)cc3F)nc21` [Example 289, 8-Ethyl-2-(2-fluoro-4-hydroxy-phenylamino)-8H-pyrido[2,3-d]pyrimidin-7-one]: the IC50 in test [1] was 3250 nM; in test [2], 720 nM; in test [3] (cdk2/E IC50), 1160 nM; in test [4] (cdk2/A IC50), 2000 nM; in test [5], 1250 nM.

As to `CCn1c(=O)ccc2cnc(Nc3ccc(O)c(Cl)c3)nc21` [Example 290, 2-(3-Chloro-4-hydroxy-phenylamino)-8-ethyl-8H1-pyrido[2,3-d]pyrimidin-7-one], the IC50 in test [1] is 1690 nM; in test [2] it was 244 nM; in test [3] (cdk2/E IC50) it was 183 nM; in test [4] (cdk2/A IC50) it was 430 nM; in test [5] it was 165 nM.

As for `CCn1c(=O)ccc2cnc(Nc3cc(Cl)c(O)c(Cl)c3)nc21` [Example 291, 2-(3,5-Dichloro-4-hydroxy-phenylamino)-8-ethyl-8H-pyrido[2,3-d]pyrimidin-7-one], the IC50 in test [1] came out at 2050 nM; in test [2] it was 445 nM; in test [3] (cdk2/E IC50), 443 nM; in test [4] (cdk2/A IC50), 790 nM; in test [5] it was 440 nM.

With `CCn1c(=O)ccc2cnc(Nc3ccc(F)c(C(F)(F)F)c3)nc21` [Example 293, 8-Ethyl-2-(4-fluoro-3-trifluoromethyl-phenylamino)-8H-pyrido[2,3-d]pyrimidin-7-one], the IC50 in test [1] was 2000 nM; in test [2], 40 nM; in test [3] (cdk2/E IC50) it was 250 nM; in test [4] (cdk2/A IC50), 1500 nM; in test [5], 430 nM.

On to `CCn1c(=O)ccc2cnc(Nc3ccc(F)c(C)c3)nc21` [Example 294, 8-Ethyl-2-(4-fluoro-3-methyl-phenylamino)-8H-pyrido[2,3-d]pyrimidin-7-one], for which the IC50 is 410 nM in test [1]; 43 nM in test [2]; 130 nM in test [3] (cdk2/E IC50); 640 nM in test [4] (cdk2/A IC50); 210 nM in test [5].

For `CCn1c(=O)ccc2cnc(Nc3ccc(S(N)(=O)=O)cc3)nc21` [Example 295, 4-(8-Ethyl-7-oxo-7,8-dihydro-pyrido[2,3-d]pyrimidin-2-ylamino)-benzenesulfonamide], the IC50 is 950 nM in test [1]; 64 nM in test [2]; 58 nM in test [3] (cdk2/E IC50); 130 nM in test [4] (cdk2/A IC50); 390 nM in test [5].

As for `CCn1c(=O)ccc2cnc(Nc3cc(OC)cc(C(F)(F)F)c3)nc21` [Example 300, 8-Ethyl-2-(3-methoxy-5-trifluoromethyl-phenylamino)-8H-pyrido[2,3-d]pyrimidin-7-one], the IC50 stood at 2800 nM in test [1]; 430 nM in test [2]; 950 nM in test [3] (cdk2/E IC50); 3900 nM in test [4] (cdk2/A IC50); 620 nM in test [5].

On to `CCn1c(=O)ccc2cnc(Nc3ccc(F)c(F)c3)nc21` [Example 301, 2-(3,4-Difluoro-phenylamino)-8-ethyl-8H-pyrido[2,3-d]pyrimidin-7-one], for which the IC50 in test [1] came out at 140 nM; in test [2] it was 120 nM; in test [3] (cdk2/E IC50), 320 nM; in test [4] (cdk2/A IC50), 830 nM; in test [5] it was 600 nM.

In the case of `CCn1c(=O)ccc2cnc(Nc3ccc(C#N)cc3)nc21` [Example 304, 4-(8-Ethyl-7-oxo-7,8-dihydro-pyrido[2,3-d]pyrimidin-2-ylamino)-benzonitrile], the IC50 in test [1] was 2900 nM; in test [2], 980 nM; in test [3] (cdk2/E IC50) it was 1600 nM; in test [4] (cdk2/A IC50) it was 1500 nM; in test [5] it was 2200 nM.

Take `CCCn1c(=O)ccc2cnc(Nc3ccccc3)nc21` [Example 309, 2-Phenylamino-8-propyl-8H-pyrido[2,3-d]pyrimidin-7-one]: the IC50 in test [1] turned out to be 357 nM; in test [2], 145 nM; in test [3] (cdk2/E IC50), 157 nM; in test [4] (cdk2/A IC50), 420 nM; in test [5], 425 nM.

In the case of `CCCn1c(=O)ccc2cnc(Nc3ccc(OC)c(Cl)c3)nc21` [Example 310, 2-(3-Chloro-4-methoxy-phenylamino)-8-propyl-8H-pyrido[2,3-d]pyrimidin-7-one], the IC50 in test [1] stood at 486 nM; in test [2] it was 69.4 nM; in test [3] (cdk2/E IC50) it was 138 nM; in test [4] (cdk2/A IC50) it was 331 nM; in test [5] it was 215 nM.

Consider `CCCn1c(=O)ccc2cnc(Nc3cccc(C(F)(F)F)c3)nc21` [Example 313, 8-Propyl-2-(3-trifluoromethyl-phenylamino)-8H-pyrido[2,3-d]pyrimidin-7-one], for which the IC50 in test [1] was determined as 3040 nM; in test [2], 309 nM; in test [3] (cdk2/E IC50), 334 nM; in test [4] (cdk2/A IC50) it was 1480 nM; in test [5], 360 nM.

Take `CCCn1c(=O)ccc2cnc(Nc3ccc(Br)c(C(F)(F)F)c3)nc21` [Example 314, 2-(4-Bromo-3-trifluoromethyl-phenylamino)-8-propyl-8H-pyrido[2,3-d]pyrimidin-7-one]: the IC50 is 2120 nM in test [1]; 114 nM in test [2]; 520 nM in test [3] (cdk2/E IC50); 2370 nM in test [4] (cdk2/A IC50); 429 nM in test [5].

Consider `CCCn1c(=O)ccc2cnc(Nc3cccc(I)c3)nc21` [Example 316, 2-(3-Iodo-phenylamino)-8-propyl-8H-pyrido[2,3-d]pyrimidin-7-one], for which the IC50 in test [1] was found to be 492 nM; in test [2], 56.6 nM; in test [3] (cdk2/E IC50), 62.5 nM; in test [4] (cdk2/A IC50), 296 nM; in test [5], 92.4 nM.

For the compound `CCCn1c(=O)ccc2cnc(Nc3ccc(S(N)(=O)=O)cc3)nc21` [Example 317, 4-(7-Oxo-8-propyl-7,8-dihydro-pyrido[2,3-d]pyrimidin-2-ylamino)-benzenesulfonamide], the IC50 in test [1] amounted to 978 nM; in test [2] it was 42.3 nM; in test [3] (cdk2/E IC50) it was 31.8 nM; in test [4] (cdk2/A IC50), 81.7 nM; in test [5] it was 88.4 nM.

The record behind these values is US20040224958A1, “Pyridopyrimidinone derivatives for treatment of neurodegenerative disease” (priority 2000, published 2004).
